≈ marks a conversion by molar mass, not a printed value.

Holding throughout (assay type): functional
For assay [1], the system named is Aspergillus fumigatus. In words: Antifungal activity against itraconazole-resistant Aspergillus fumigatus isolate by broth microdilution method.
The test system of assay [2] is Aspergillus fumigatus. In words: Antifungal activity against Aspergillus fumigatus isolate by broth microdilution method. In general terms: Dilution methods test growth across graded concentrations, often in twofold steps.
Assay [3] has as its system Aspergillus fumigatus. The experiment in a line: Antifungal activity against voriconalzole-resistant Aspergillus fumigatus isolate by broth microdilution method.

As to `C[C@@H](c1ncncc1F)[C@](O)(Cn1cncn1)c1ccc(F)cc1F` [VORICONAZOLE], 4 µg/mL (≈ 11.5 µM) was the least that counted as inhibitory in the assay on Aspergillus fumigatus [1] (MIC). Further, in the assay on Aspergillus fumigatus [2], the MIC50 was determined as 0.25 µg/mL (≈ 0.716 µM) and the MIC90 came to 0.5 µg/mL (≈ 1.43 µM).

The compound `CCC(C)n1ncn(-c2ccc(N3CCN(c4ccc(OCC5COC(Cn6cncn6)(c6ccc(Cl)cc6Cl)O5)cc4)CC3)cc2)c1=O` (stereo not drawn) [ITRACONAZOLE] returned an MIC with Aspergillus fumigatus [3] of more than 16 µg/mL. In the assay on Aspergillus fumigatus [2], this compound gave an MIC50 of 0.5 µg/mL (≈ 0.709 µM) and an MIC90 of 0.5 µg/mL (≈ 0.709 µM).

Turning to `C[C@@H]1[C@H](O)[C@@H](C)/C=C/C=C/C=C/C=C/C=C/C=C/C=C/[C@H](O[C@@H]2O[C@H](C)[C@@H](O)[C@H](N)[C@@H]2O)C[C@@H]2O[C@](O)(C[C@@H](O)C[C@@H](O)[C@H](O)CC[C@@H](O)C[C@@H](O)CC(=O)O[C@H]1C)C[C@H](O)[C@H]2C(=O)O` [AMPHOTERICIN B], in the assay on Aspergillus fumigatus [2], the MIC50 was determined as 2 µg/mL (≈ 2.16 µM) and the MIC90 was found to be 2 µg/mL (≈ 2.16 µM).

Broadly, the MIC is the smallest concentration in the dilution series that meets the test's criterion for growth inhibition. Usually MIC50 stands for the lowest concentration that inhibits either 50% of growth or 50% of the strains tested, depending on the study. By MIC90 is commonly meant an inhibitory concentration at the 90% level, which refers to growth in some studies and to a panel of isolates in others. The low end stands for higher susceptibility, the high end for lower susceptibility.

(Values after ChEMBL document CHEMBL1649189, “Avian Aspergillus fumigatus strains resistant to both itraconazole and voriconazole” (2009).)
